Assay results published in US5112864A, “PLA2 inhibitors as antiinflammatories” (G. D. Searle & Co., priority 1991, dated 1992).

Biological target: T1, Human synovial fluid phospholipase A2 (HSF-PLA2) (Homo sapiens, UniProt P14555)
T1 construct: Human synovial fluid phospholipase A2 was purified approximately 5000 fold; from tissue; host or cells: human synovial fluid
T1 sequence (P14555 21-144): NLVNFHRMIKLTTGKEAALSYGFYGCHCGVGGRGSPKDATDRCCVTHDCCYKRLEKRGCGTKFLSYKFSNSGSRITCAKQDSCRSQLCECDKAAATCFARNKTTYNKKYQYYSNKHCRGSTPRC
Assay: Human synovial fluid phospholipase A2 (HSF-PLA2) assay, [14C]-oleate-labeled autoclaved E. coli substrate
Type: biochemical
Settings: purified HSF-PLA2; pH 7.0, 5 mM CaCl2; 5 min pre-incubation; 37° C., 30 minutes; mean
Description: Human synovial fluid phospholipase A2 was purified approximately 5000 fold following the procedures of Franson et al., Lung 160, 275-284 (1982) and Vishwanath et al., Inflammation 12(6), 549-56 (1988). Following purification the enzyme activity was measured by a modified methodology using [^14 C]-oleate-labeled, autoclaved E. coli as the substrate as also shown in the above noted references. The assay was performed in a final volume of 100 μl containing 50 mM HEPES (pH 7.0), 150 mM NaCl, 5mM CaCl2, 7 n mole [^14 C]-oleate-labeled E. coli phospholipid and with or without the compound from one of the examples herein undergoing an assay. The compound or control vehicle was pre-incubated with the PLA2 for 5 minutes followed by addition of the E. coli substrate to initiate the reaction. The reaction was maintained at 37° C. for 30 minutes and then terminated by the addition of 2 ml tetrahydrofuran (THF). The reaction product, [^14 C]-oleic acid, was extracted using a 1 ml Bond Elut-NH2 Solid phase extraction column. The IC50 value for the compound (mean -S.E.) is given in the following Table I and represents the concentration of the indicated compound required to inhibit 50% of the PLA2 activity.

IC50 [µM] | Compound
6 | CCCCCCCCCCCCCC#CC(=O)Cc1cccc(C(=O)OC)c1 [Example 5, methyl 3-(2-oxo-3-heptadecynyl) benzoate]
2.75 | COC(=O)c1cccc(CC(=O)C#CCCCCCCCCCOc2ccccc2)c1 [Example 7, methyl 3-(2-oxo-13-phenoxy-3-tridecynyl)benzoate]

Continued, molecule first:

Compound | IC50 [µM]
COCCCCCCCCCC#CC(=O)Cc1cccc(C(=O)OC)c1 [Example 9, methyl 3-(2-oxo-13-methoxy-3-tridecynyl)benzoate] | 20.6
CCCCCCCCCCCCCC#CC(=O)Cc1ccccc1C(=O)OC [Example 11, methyl 2-(2-oxo-3heptadecynyl)benzoate] | 17.4
CCCCCCCCCCCCCC#CC(=O)Cc1ccc(C(=O)OC)cc1 [Example 14, methyl 4-(2-oxo-3heptadecynyl)benzoate] | 2.2
